Columns and labels:
BT-549 = assay: NCI 60 Human Tumor Cell Line Anticancer Screen; format: cell-based; details: BT-549, Breast
A498 = assay: NCI 60 Human Tumor Cell Line Anticancer Screen; format: cell-based; details: A498, Renal
T-47D = assay: NCI 60 Human Tumor Cell Line Anticancer Screen; format: cell-based; details: Breast
K-562 = assay: NCI 60 Human Tumor Cell Line Anticancer Screen; format: cell-based; details: K-562, Leukemia
RPMI-8226 = assay: NCI 60 Human Tumor Cell Line Anticancer Screen; format: cell-based; details: RPMI-8226, Leukemia
MDA-MB-231 = assay: NCI 60 Human Tumor Cell Line Anticancer Screen; format: cell-based; details: MDA-MB-231, Breast
CCRF-CEM = assay: NCI 60 Human Tumor Cell Line Anticancer Screen; format: cell-based; details: Leukemia
NCI-H460 [1] = assay: NCI 60 Human Tumor Cell Line Anticancer Screen; format: cell-based; details: NCI-H460, Non-small cell lung
MDA-MB-435 = assay: NCI 60 Human Tumor Cell Line Anticancer Screen; format: cell-based; details: MDA-MB-435, Melanoma
SK-MEL-5 = assay: NCI 60 Human Tumor Cell Line Anticancer Screen; format: cell-based; details: SK-MEL-5, Melanoma
PC-3 = assay: NCI 60 Human Tumor Cell Line Anticancer Screen; format: cell-based; details: PC-3, Prostate
SF-268 [2] = assay: cells; format: cell-based, human; details: read-out: GI50 SF-268 CNS
SF-268 [3] = assay: NCI 60 Human Tumor Cell Line Anticancer Screen; format: cell-based; details: SF-268, CNS
HT29 = assay: cells; format: cell-based, human
OVCAR-5 = assay: NCI 60 Human Tumor Cell Line Anticancer Screen; format: cell-based; details: OVCAR-5, Ovary
LOX IMVI = assay: NCI 60 Human Tumor Cell Line Anticancer Screen; format: cell-based; details: Melanoma
SN12C = assay: NCI 60 Human Tumor Cell Line Anticancer Screen; format: cell-based; details: Renal
MCF7 [4] = assay: NCI 60 Human Tumor Cell Line Anticancer Screen; format: cell-based; details: MCF7, Breast
HCC-2998 = assay: NCI 60 Human Tumor Cell Line Anticancer Screen; format: cell-based; details: HCC-2998, Colon
OVCAR-4 = assay: NCI 60 Human Tumor Cell Line Anticancer Screen; format: cell-based; details: OVCAR-4, Ovary
SF-295 = assay: NCI 60 Human Tumor Cell Line Anticancer Screen; format: cell-based; details: SF-295, CNS
HCT-116 = assay: NCI 60 Human Tumor Cell Line Anticancer Screen; format: cell-based; details: HCT-116, Colon
SF-539 = assay: NCI 60 Human Tumor Cell Line Anticancer Screen; format: cell-based; details: SF-539, CNS
HOP-62 = assay: NCI 60 Human Tumor Cell Line Anticancer Screen; format: cell-based; details: HOP-62, Non-small cell lung
IGROV1 = assay: NCI 60 Human Tumor Cell Line Anticancer Screen; format: cell-based; details: IGROV1, Ovary
MCF7 [5] = assay: cells; format: cell-based, human; details: read-out: GI50 MCF7 breast
A549 = assay: cells; format: cell-based, human; details: read-out: GI50 A549 lung (+p53)
Hep3b = assay: cells; format: cell-based, human; details: read-out: GI50 Hep3b liver
H1299 = assay: cells; format: cell-based, human
SNB-19 = assay: NCI 60 Human Tumor Cell Line Anticancer Screen; format: cell-based; details: SNB-19, CNS
NCI-H460 [6] = assay: cells; format: cell-based, human; details: read-out: GI50 NCI-H460 lung
ACHN = assay: NCI 60 Human Tumor Cell Line Anticancer Screen; format: cell-based; details: Renal
MOLT-4 = assay: NCI 60 Human Tumor Cell Line Anticancer Screen; format: cell-based; details: MOLT-4, Leukemia
KM12 = assay: NCI 60 Human Tumor Cell Line Anticancer Screen; format: cell-based; details: KM12, Colon
CAKI-1 = assay: NCI 60 Human Tumor Cell Line Anticancer Screen; format: cell-based; details: CAKI-1, Renal
SR = assay: NCI 60 Human Tumor Cell Line Anticancer Screen; format: cell-based; details: Leukemia
NCI-H322M = assay: NCI 60 Human Tumor Cell Line Anticancer Screen; format: cell-based; details: Non-small cell lung
MALME-3M = assay: NCI 60 Human Tumor Cell Line Anticancer Screen; format: cell-based; details: Melanoma
HCT-15 = assay: NCI 60 Human Tumor Cell Line Anticancer Screen; format: cell-based; details: HCT-15, Colon
SNB-75 = assay: NCI 60 Human Tumor Cell Line Anticancer Screen; format: cell-based; details: SNB-75, CNS

CON(CCCCc1ccc(N(CCCl)CCCl)cc1)C1OCC(O)C1O (stereo not shown) [Compound 60]
GI50 (BT-549): 13.4 µM
Inhibition at 10 μM (BT-549; 10 μM): 38.53%
GI50 (A498): 21.8 µM
Inhibition at 10 μM (A498; 10 μM): 114.47%
GI50 (T-47D): 6.37 µM
Inhibition at 10 μM (T-47D; 10 μM): 48.01%
Inhibition at 10 μM (K-562): 88.55%
Inhibition at 10 μM (RPMI-8226): 15.94%
GI50 (MDA-MB-231): 1.39 µM
Inhibition at 10 μM (MDA-MB-231; 10 μM): 87.54%
GI50 (CCRF-CEM): 2.36 µM
Inhibition at 10 μM (CCRF-CEM; 10 μM): 21.19%
GI50 (NCI-H460 [1]): 3.76 µM
Inhibition at 10 μM (NCI-H460 [1]; 10 μM): 35.80%
GI50 (MDA-MB-435): 21.1 µM
Inhibition at 10 μM (MDA-MB-435; 10 μM): 83.03%
GI50 (SK-MEL-5): 17.7 µM
Inhibition at 10 μM (SK-MEL-5; 10 μM): 79.00%
GI50 (PC-3): 11.7 µM
Inhibition at 10 μM (PC-3; 10 μM): 72.52%
GI50 (SF-268 [2]): 1.5 ± 0.1 µM
GI50 (SF-268 [3]): 5.75 µM
Inhibition at 10 μM (SF-268 [3]; 10 μM): 67.83%
improved activity over the parent drug (HT29): 12 fold
GI50 (HT29; read-out: GI50 HT29 colorectal): 0.41 ± 0.06 µM
Inhibition at 10 μM (OVCAR-5): 111.11%
GI50 (LOX IMVI): 8.61 µM
Inhibition at 10 μM (LOX IMVI; 10 μM): 54.82%
GI50 (SN12C): 7.06 µM
Inhibition at 10 μM (SN12C; 10 μM): 54.23%
GI50 (MCF7 [4]): 4.51 µM
Inhibition at 10 μM (MCF7 [4]; 10 μM): 32.40%
Inhibition at 10 μM (HCC-2998): 73.29%
GI50 (OVCAR-4): 29.2 µM
Inhibition at 10 μM (OVCAR-4; 10 μM): 77.16%
GI50 (SF-295): 6.47 µM
Inhibition at 10 μM (SF-295; 10 μM): 56.59%
GI50 (HCT-116): 14.5 µM
Inhibition at 10 μM (HCT-116; 10 μM): 69.37%
GI50 (SF-539): 8.8 µM
Inhibition at 10 μM (SF-539; 10 μM): 51.79%
GI50 (HOP-62): 8.28 µM
Inhibition at 10 μM (HOP-62; 10 μM): 73.20%
GI50 (IGROV1): 1.21 µM
GI50 (MCF7 [5]): 1.8 ± 0.1 µM
GI50 (A549): 1.1 ± 0.1 µM
GI50 (Hep3b): 0.67 ± 0.06 µM
improved activity over the parent drug (H1299): 13 fold
GI50 (H1299; read-out: GI50 H1299 lung (−p53)): 0.37 ± 0.04 µM
GI50 (SNB-19): 33.4 µM
Inhibition at 10 μM (SNB-19; 10 μM): 65.81%
GI50 (NCI-H460 [6]): 1.7 ± 0.4 µM
GI50 (ACHN): 4.34 µM
Inhibition at 10 μM (ACHN; 10 μM): 14.27%
GI50 (MOLT-4): 1.22 µM
Inhibition at 10 μM (MOLT-4; 10 μM): 64.41%
GI50 (KM12): 30 µM
Inhibition at 10 μM (KM12; 10 μM): 97.57%
GI50 (CAKI-1): 11.5 µM
Inhibition at 10 μM (CAKI-1; 10 μM): 13.59%
GI50 (SR): 0.386 µM
Inhibition at 10 μM (SR; 10 μM): 48.67%
GI50 (NCI-H322M): > 100 µM
Inhibition at 10 μM (NCI-H322M; 10 μM): 99.02%
GI50 (MALME-3M): 20.2 µM
Inhibition at 10 μM (MALME-3M; 10 μM): 69.73%
GI50 (HCT-15): 19.7 µM
Inhibition at 10 μM (HCT-15; 10 μM): 77.10%
GI50 (SNB-75): 19.5 µM
Inhibition at 10 μM (SNB-75; 10 μM): 66.74%
